Entries after “also recorded” stand apart in the source; their conditions may differ.
Key:
[1] = tested on: above-mentioned bacterial strains; assay: Spot assays on bacterial lawns and direct kill assays of synthetic peptides; assay type: cell-based
Description: The fractions were dried and reconstituted in water and spotted onto Tryptic soy agar plates that were spread with 100 μL of select bacterial grown overnight in tryptic soy broth.
We have named them HBCA1 and HBCA2.
(§1) All three peptides were tested using direct kills assays. Equal inoculums of indicated bacterial pathogens were incubated either with water (−) or 50 mg/ml of HBCA1, HBCA2 or HBCA2.C. Aliquots were spotted at T=0 min (start of incubation) and at 30 minutes post incubation (T=30 min) on LB-agar plates, and incubated at 37° C. overnight to see growth.

Porphyromonas gingivalis = assay: Kill assay on TSA plates (5% difibrinated blood); assay type: cell-based
From the text: Porphyromonas gingivalis (a keystone pathogen in chronic periodontitis, and identified in the brains of Alzheimer's patients) is sensitive to HBCA1 and HBCA2 peptides.

K. pneumoniae = assay: Activity on TSA plates (FIG. 16); assay type: cell-based; conditions: 20 mg/ml and 10 mg/ml on TSA plates
Description: FIG. 16 depicts activity of HBCA2 peptide against K. pneumoniae at 20 mg/ml and 10 mg/ml on TSA plates.

[2] = tested on: commensal Lactobacillus strains; assay: Activity against commensal strains; assay type: cell-based; conditions: strains commonly found in infant and adult gut
G. vaginalis = assay: Direct kill assay on HBT bilayer Gardnerella media; assay type: cell-based, Gardnerella vaginalis
Description: When we subjected G. vaginalis to direct kill assays using HBCA1 and HBCA2, we observed that both peptides render G. vaginalis non-viable within 30 minutes, as indicated by loss of bacterial growth on HBT bilayer Gardnerella media (FIG. 9).

K. pneunomiae = assay: Killing of pathogenic bacteria; assay type: cell-based, K. pneumoniae
Description: as §1

[3] = tested on: commensal Bifidobacterium strains; assay: Activity against commensal strains; assay type: cell-based; conditions: strains commonly found in infant and adult gut
S. enteritidis = assay: Killing of pathogenic bacteria; assay type: cell-based
Description: as §1

S. aureus (MRSA) = assay: Killing of pathogenic bacteria; assay type: cell-based
Description: as §1

E. coli (EHEC) = assay: Killing of pathogenic bacteria; assay type: cell-based
Description: as §1

E. faecalis = assay: Killing of pathogenic bacteria; assay type: cell-based
Description: as §1

L. monocytogenes = assay: Killing of pathogenic bacteria; assay type: cell-based
Description: as §1

[4] = tested on: indicated bacterial pathogens; assay: Direct kill assay; assay type: cell-based; conditions: 50 mg/ml
Description: as §1

P. aeruginosa = assay: Direct kill assay; assay type: cell-based
Description: as §1

| Sequence | antibacterial activity [1] | sensitivity of P. gingivalis (Porphyromonas gingivalis) | relative potency against K. pneumoniae (K. pneumoniae) | killing of Porphyromonas gingivalis (Porphyromonas gingivalis) | speed of loss of viability of P. gingivalis (Porphyromonas gingivalis; upon mixing cells with peptide) | activity against commensal Lactobacillus strains [2] | killing of Gardnerella vaginalis (G. vaginalis) | killing / viability of K. pneumoniae (K. pneunomiae) | activity against commensal Bifidobacterium strains [3] | killing of S. enteritidis (S. enteritidis) | killing of S. aureus (MRSA) (S. aureus (MRSA)) | killing of E. coli (EHEC) (E. coli (EHEC)) | killing of E. faecalis (E. faecalis) | killing of L. monocytogenes (L. monocytogenes) | relative activity of the peptides in direct kill assays [4] | killing of P. aeruginosa (P. aeruginosa) | loss of viability of P. aeruginosa (P. aeruginosa; 50 mg/ml, T=0 min) |
| --- | --- | --- | --- | --- | --- | --- | --- | --- | --- | --- | --- | --- | --- | --- | --- | --- | --- |
| TVYTKGRVMPVLKSPTIPFFDPQI (listed as Homo sapiens) [HBCA1] | showed antibacterial activity | sensitive | – | – | – | – | – | – | – | – | – | – | – | – | – | – | – |
| RVRPKLKSPRIP [HBCA2.4] | – | – | most potent of the HBCA peptides | – | – | – | – | – | – | – | – | – | – | – | – | – | – |
| RVMPVLKSPTIP (listed as Homo sapiens) [HBCA2] | showed antibacterial activity | sensitive | – | kills | rapid killing; also recorded: rapidly lose viability right at 0 minutes | no detected activity | kills | kills | no detected activity | kills | kills | kills | kills | kills | more potent in its activity than the larger HBCA1 peptide | kills | rapidly lost (while mixing at T0) |
